From patent US20210255193A1, “LYSINE REACTIVE PROBES AND USES THEREOF” (The Scripps Research Institute, priority 2017, published 2021)

Tests used:
Assay in all cases: competitive isoTOP-ABPP
Type in all cases: binding
[1] = molecular target: T1, MAP1LC3B Microtubule-associated proteins 1A/1B light chain (Homo sapiens, UniProt Q9GZQ8); settings: for isoTOP-ABPP ratio (R) at liganded lysine Q9GZQ8_K51: 50 uM, in vitro, sol, 231
T1 construct: isoTOP-ABPP experiments performed in cell lysates (in vitro); endogenous in cells; host or cells: soluble proteome of human cancer cell lines (MDA-MB-231; Ramos and Jurkat also prepared)
Procedure: (§1) In vitro covalent fragment treatment for isoTOP-ABPP. All compounds were made up as solutions in DMSO (100×) and were used at a final concentration of 50 μM for activated esters and 100 μM for guanidinylating agents. For each profiling sample, 0.5 ml of lysate was treated with 5 μl of the 100× compound stock solution or 5 μl of DMSO. Samples were treated with activated esters for
(§2) STP-alkyne labeling and click chemistry. For concentration-dependent reactivity measurements by isoTOP-ABPP, 0.5 ml proteome aliquots were treated at ambient temperature with 1 mM STP-alkyne 1 (5 μl of 100 mM stock in DMSO) and 0.1 mM STP alkyne 1 (5 μl of 10 mM stock in DMSO), respectively. For competitive isoTOP-ABPP, after in vitro fragment treatment (detailed above), the samples were labeled for 1 h at ambient temperature with 0.1 mM STP-alkyne 1 (5 μl of 10 mM stock in DMSO). Samples were conjugated by copper-mediated azide-alkyne cycloaddition (CuAAC) to either the light (1 mM STP-alkyne or fragment treated) or heavy (0.1 mM STP-alkyne or DMSO treated) TEV tags (10 μl of 5 mM stocks in DMSO, final concentration=100 μM) using tris(2-carboxyethyl)phosphine hydrochloride
(§3) R value calculation and processing. The ratios of light and heavy MS1 peaks for each unique peptide were quantified with a CIMAGE software using default parameters (3 MS1 acquisitions per peak and signal to noise threshold set to 2.5). For reactivity measurements by isoTOP-ABPP, the R value was calculated from the ratio of MS1 peak areas, comparing the 1 mM STP alkyne sample (light TEV tag) with the 0.1 mM STP alkyne sample (heavy TEV tag). For competitive isoTOP-ABPP, the R value was calculated from the ratio of MS1 peak areas, comparing the DMSO treated sample (heavy TEV tag) with the compound treated sample (light TEV tag). […] Ratios for unique peptide entries are calculated for each experiment; overlapping peptides with the same modified lysine (for example, different charge states, MudPIT chromatographic steps or tryptic termini) are grouped together and the median ratio is reported as the final ratio (R). The peptide ratios reported by CIMAGE were further filtered to ensure the removal or correction of low-quality ratios in each individual data set. The quality filters applied were the following: removal of half tryptic peptides; for ratios with high standard deviations from the median (90% of the median or above) the lowest ratio was taken instead of the median; removal of peptides with R=20 and only a single MS2 event triggered during the elution of the parent ion; manual annotation of all the peptides with ratios of 20, removing any peptides with low quality elution profiles that remained after the previous curation steps (only done for competitive isoTOP-ABPP).
(§4) Cross-data processing for fragment screening. For compound treated samples, biological replicates of the same condition were averaged, if the standard deviation was below 60% of the mean; otherwise, for lysines with at least one R value <4 for a particular compound, the lowest value of the ratio set was taken. For lysines, where all R values for a particular compound were ≥4, the average was reported. For peptides containing several possible modified lysines, the lysine with the highest number of quantification events was used for analysis and the remaining, redundant peptides were reported as alternative modification sites. Peptides included in the aggregate dataset (those used for further bioinformatics and statistical analyses) were required to have been quantified in 2 experiments for competitive isoTOP-ABPP. Lysines were categorized as liganded, if they had at least one ratio R≥4 (hit fragments). For liganded lysines with R=20 for all liganding events, lysines were required to have been quantified with R=20 in two separate experiments and were further required to have been quantified with R<20 in one additional experiment.

[2] = molecular target: T2, ISOC2 Isochorismatase domain-containing protein 2, mitochondrial (Homo sapiens, UniProt Q96AB3); settings: for isoTOP-ABPP ratio (R) at liganded lysine Q96AB3_K178: 50 uM, in vitro, sol, 231
T2 construct: isoTOP-ABPP experiments performed in cell lysates (in vitro); endogenous in cells; host or cells: soluble proteome of human cancer cell lines (MDA-MB-231; Ramos and Jurkat also prepared)
T2 sequence (Q96AB3 1-205): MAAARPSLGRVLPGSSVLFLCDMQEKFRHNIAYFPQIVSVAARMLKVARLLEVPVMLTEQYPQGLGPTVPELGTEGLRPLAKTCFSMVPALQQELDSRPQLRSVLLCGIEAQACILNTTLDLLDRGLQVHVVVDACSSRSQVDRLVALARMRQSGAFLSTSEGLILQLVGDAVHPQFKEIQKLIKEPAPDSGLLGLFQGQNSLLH
Procedure: as §1, §2, §3, §4

[3] = molecular target: T3, GSTT2B Glutathione S-transferase theta-2B (Homo sapiens, UniProt P0CG30); settings: for isoTOP-ABPP ratio (R) at liganded lysine P0CG30_K53: 50 uM, in vitro, sol, 231
T3 construct: isoTOP-ABPP experiments performed in cell lysates (in vitro); endogenous in cells; host or cells: MDA-MB-231 soluble lysate
T3 sequence (P0CG30 1-244): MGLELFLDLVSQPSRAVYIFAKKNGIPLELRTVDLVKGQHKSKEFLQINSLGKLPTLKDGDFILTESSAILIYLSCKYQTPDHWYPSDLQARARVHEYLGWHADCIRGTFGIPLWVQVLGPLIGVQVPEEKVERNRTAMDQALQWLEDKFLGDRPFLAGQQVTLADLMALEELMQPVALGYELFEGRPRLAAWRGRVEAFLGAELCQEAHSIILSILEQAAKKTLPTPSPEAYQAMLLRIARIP
Procedure: as §1, §2, §3, §4

[4] = molecular target: T4, MRPS24 28S ribosomal protein S24, mitochondrial (Homo sapiens, UniProt Q96EL2); settings: for isoTOP-ABPP ratio (R) at liganded lysine Q96EL2_K94: 50 uM, in vitro, sol, 231
T4 construct: isoTOP-ABPP experiments performed in cell lysates (in vitro); endogenous in cells; host or cells: soluble proteome of human cancer cell lines (MDA-MB-231; Ramos and Jurkat also prepared)
Procedure: as §1, §2, §3, §4

[5] = molecular target: T5, ERAP1 Endoplasmic reticulum aminopeptidase 1 (Homo sapiens, UniProt Q9NZ08); settings: for isoTOP-ABPP ratio (R) at liganded lysine Q9NZ08_K685: 50 uM, in vitro, sol, 231
T5 construct: endogenous in cells; host or cells: MDA-MB-231 lysate
T5 sequence (Q9NZ08 whole entry): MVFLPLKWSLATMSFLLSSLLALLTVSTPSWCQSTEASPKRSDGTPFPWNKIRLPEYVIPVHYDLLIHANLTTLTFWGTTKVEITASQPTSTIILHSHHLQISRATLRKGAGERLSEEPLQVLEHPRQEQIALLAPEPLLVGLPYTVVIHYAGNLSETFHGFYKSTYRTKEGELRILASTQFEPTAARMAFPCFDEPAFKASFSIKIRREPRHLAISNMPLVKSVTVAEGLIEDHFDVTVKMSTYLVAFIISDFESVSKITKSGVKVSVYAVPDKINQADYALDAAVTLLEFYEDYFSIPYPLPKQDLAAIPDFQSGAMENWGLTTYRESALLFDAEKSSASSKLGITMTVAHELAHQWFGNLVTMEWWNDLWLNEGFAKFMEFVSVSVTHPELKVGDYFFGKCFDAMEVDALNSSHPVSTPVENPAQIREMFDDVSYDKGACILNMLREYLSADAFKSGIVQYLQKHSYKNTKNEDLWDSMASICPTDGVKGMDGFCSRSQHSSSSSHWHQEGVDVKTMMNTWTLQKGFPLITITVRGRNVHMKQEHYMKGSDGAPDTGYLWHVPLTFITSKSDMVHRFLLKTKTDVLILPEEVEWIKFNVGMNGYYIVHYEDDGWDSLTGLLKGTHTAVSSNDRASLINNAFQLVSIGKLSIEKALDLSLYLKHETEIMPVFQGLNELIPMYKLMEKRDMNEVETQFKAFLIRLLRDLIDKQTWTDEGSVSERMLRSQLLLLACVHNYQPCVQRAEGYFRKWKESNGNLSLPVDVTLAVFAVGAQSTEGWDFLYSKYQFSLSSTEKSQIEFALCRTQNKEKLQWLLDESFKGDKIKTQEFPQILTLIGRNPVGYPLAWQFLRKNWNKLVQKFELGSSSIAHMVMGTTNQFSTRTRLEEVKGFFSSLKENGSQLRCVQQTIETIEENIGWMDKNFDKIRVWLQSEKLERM
Procedure: as §1, §2, §3, §4

[6] = molecular target: T6, GLOD4 Glyoxalase domain-containing protein 4 (Homo sapiens, UniProt Q9HC38); settings: for isoTOP-ABPP ratio (R) at liganded lysine Q9HC38_K305: 50 uM, in vitro, sol, 231
T6 construct: endogenous in cells; host or cells: MDA-MB-231 (soluble fraction of lysate)
T6 sequence (Q9HC38 1-313): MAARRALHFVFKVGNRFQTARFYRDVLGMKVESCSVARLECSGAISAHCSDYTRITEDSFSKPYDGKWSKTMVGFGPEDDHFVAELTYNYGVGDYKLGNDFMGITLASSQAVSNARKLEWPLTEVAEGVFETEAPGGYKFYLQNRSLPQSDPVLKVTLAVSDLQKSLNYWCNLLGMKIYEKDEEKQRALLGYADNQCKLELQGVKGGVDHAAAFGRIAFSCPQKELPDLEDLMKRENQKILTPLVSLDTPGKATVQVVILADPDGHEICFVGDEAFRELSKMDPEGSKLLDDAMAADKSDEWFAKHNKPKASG
Procedure: as §1, §2, §3, §4

Structure (SMILES) | isoTOP-ABPP ratio (R) at liganded lysine Q9GZQ8_K51 [1] | isoTOP-ABPP ratio (R) at liganded lysine Q96AB3_K178 [2] | isoTOP-ABPP ratio (R) at liganded lysine P0CG30_K53 [3] | isoTOP-ABPP ratio (R) at liganded lysine Q96EL2_K94 [4] | isoTOP-ABPP ratio (R) at liganded lysine Q9NZ08_K685 [5] | isoTOP-ABPP ratio (R) at liganded lysine Q9HC38_K305 [6] | further results
O=C(Oc1ccc([N+](=O)[O-])cc1[N+](=O)[O-])C1CCN(C(=O)OCc2ccccc2)CC1 [fragment 34, 1-Benzyl 4-(2,4-dinitrophenyl) piperidine-1,4-dicarboxylate] | 1.0 | 1.1 | 0.5 | 1.4 | 1.7 | 20.0 | 
O=C(Oc1ccc([N+](=O)[O-])cc1[N+](=O)[O-])c1ccc(-c2ccccc2)cc1 [fragment 37, 2,4-Dinitrophenyl [1,1′-biphenyl]-4-carboxylate] | 0.9 | 0.9 | 0.7 | 0.9 | 1.0 | 0.6 | 
O=C(CC12CC3CC(CC(C3)C1)C2)Oc1ccc([N+](=O)[O-])cc1[N+](=O)[O-] [fragment 38, 2,4-Dinitrophenyl 2-(adamantan-1-yl)acetate] | 0.8 | 0.9 | 0.8 | 3.1 | 1.0 | 20.0 | 
O=C(Oc1ccc([N+](=O)[O-])cc1[N+](=O)[O-])c1ccc(Oc2ccccc2)cc1 [fragment 39, 2,4-Dinitrophenyl 4-phenoxybenzoate] | 0.9 | 0.9 | 0.7 | 1.2 | 1.0 | 0.8 | 
CC(C)(C)OC(=O)NCCCC(=O)Oc1ccc([N+](=O)[O-])cc1[N+](=O)[O-] [fragment 41, 2,4-Dinitrophenyl 4-((tert-butoxycarbonyl)amino)butanoate] | 0.9 | 1.9 | 0.5 | 1.3 | 1.3 | 20.0 | 
O=C(Oc1ccc([N+](=O)[O-])cc1[N+](=O)[O-])C(c1ccccc1)(c1ccccc1)c1ccccc1 [fragment 42, 2,4-Dinitrophenyl 2,2,2-triphenylacetate] | 0.9 | 1.0 | 1.0 | 1.5 | 1.0 | 0.9 | 
N#Cc1ccc(C(=O)Oc2ccc([N+](=O)[O-])cc2[N+](=O)[O-])cc1 [fragment 44, 2,4-Dinitrophenyl 4-cyanobenzoate] |  |  |  |  |  |  | isoTOP-ABPP ratio, lysine Q9GZQ8_K51 ([1]; 50 uM_231_sol_in vitro): 0.9; isoTOP-ABPP ratio, lysine Q96AB3_K178 ([2]; 50 uM_231_sol_in vitro): 1.3; isoTOP-ABPP ratio, lysine P0CG30_K53 ([3]; 50 uM_231_sol_in vitro): 0.6; isoTOP-ABPP ratio, lysine Q96EL2_K94 ([4]; 50 uM_231_sol_in vitro): 1.1; isoTOP-ABPP ratio, lysine Q9NZ08_K685 ([5]; 50 uM_231_sol_in vitro): 1.6; isoTOP-ABPP ratio, lysine Q9HC38_K305 ([6]; 50 uM_231_sol_in vitro): 0.5
COC(=O)NC(=NC(=O)OCC1c2ccccc2-c2ccccc21)n1cccn1 [fragment 49, N-Methoxycarbonyl-N′-9-fluorenylmethoxycarbonyl-pyrazole-1-carboxamidine] |  |  |  |  |  |  | isoTOP-ABPP ratio, lysine Q9GZQ8_K51 ([1]; 100 uM_231_sol_in vitro): 1.6; isoTOP-ABPP ratio, lysine Q96AB3_K178 ([2]; 100 uM_231_sol_in vitro): 1.1; isoTOP-ABPP ratio, lysine P0CG30_K53 ([3]; 100 uM_231_sol_in vitro): 3.1; isoTOP-ABPP ratio, lysine Q96EL2_K94 ([4]; 100 uM_231_sol_in vitro): 3.0; isoTOP-ABPP ratio, lysine Q9NZ08_K685 ([5]; 100 uM_231_sol_in vitro): 1.6; isoTOP-ABPP ratio, lysine Q9HC38_K305 ([6]; 100 uM_231_sol_in vitro): 1.2
CC(C)(C)OC(=O)N=C(NC(=O)OC(C)(C)C)n1cccn1 [fragment 50, reference compound] |  |  |  |  |  |  | isoTOP-ABPP ratio, lysine Q9GZQ8_K51 ([1]; 100 uM_231_sol_in vitro): 4.6; isoTOP-ABPP ratio, lysine Q96AB3_K178 ([2]; 100 uM_231_sol_in vitro): 1.1; isoTOP-ABPP ratio, lysine P0CG30_K53 ([3]; 100 uM_231_sol_in vitro): 1.4; isoTOP-ABPP ratio, lysine Q96EL2_K94 ([4]; 100 uM_231_sol_in vitro): 2.2; isoTOP-ABPP ratio, lysine Q9NZ08_K685 ([5]; 100 uM_231_sol_in vitro): 20.0; isoTOP-ABPP ratio, lysine Q9HC38_K305 ([6]; 100 uM_231_sol_in vitro): 1.1
